Laboratory results from patent US20240132559A1, “COMPOSITIONS AND METHODS FOR MODULATING MYC EXPRESSION” (FLAGSHIP PIONEERING INNOVATIONS V, INC., priority 2020, published 2024).

Assays:
SKHEP1 and Hep 3B cells = experiment: IC50 of sorafenib or JQ1 in combination with bi-cistronic ZF9-MQ1_ZF3-KRAB; format: cell-based, human; conditions: for IC50 of sorafenib: in combination with 0.1 ug/ml bi-cistronic ZF9-MQ1_ZF3-KRAB; for IC50: Homo sapiens
Hep 3B cells = experiment: Sorafenib dose response viability with bi-cistronic ZF9-MQ1_ZF3-KRAB (CellTiter-GLO); format: cell-based; conditions: Homo sapiens, Hep3B, 72 h
Method: (§1) In this example, the effect of bi-cistronic ZF9-MQ1_ZF3-KRAB on the small molecule sorafenib (multi-kinase inhibitor) efficacy in HCC cell lines was evaluated. Sorafenib is used as a standard of care in HCC and high MYC levels can predict sorafenib resistance. It was hypothesized that bi-cistronic ZF9-MQ1_ZF3-KRAB may re-sensitize HCC to sorafenib through its downregulation of MYC. Dose response assays were utilized to evaluate if bi-cistronic ZF9-MQ1_ZF3-KRAB treatment could decrease the IC50 of sorafenib.
(§2) To evaluate potential synergy between bi-cistronic ZF9-MQ1_ZF3-KRAB and sorafenib, Hep 3B or SK-HEP-1 cells were plated in 96 well plates at 10,000 cells per well. Cells were then treated with sorafenib at a dose range between 0.1 and 25 μM, with serial dilution of 1:2. Lipid mix carrying bi-cistronic ZF9-MQ1_ZF3-KRAB was then added to a subset of the wells at a dose of 0.1 or 0.6 μg/mL. A set of cells was treated with sorafenib alone to use as control. Following 72-hour treatment, cells were lysed with the CellTiter-GLO® reagent and luminescence was quantified using the Glo Max. Relative cell viability was calculated by averaging the untreated values and dividing each experimental luciferase value by that average.

SK-HEP-1 cells = experiment: as above; format: cell-based; conditions: Homo sapiens, SK-HEP1, 72 h, SKHEP-1, 72-hour
Method: as §1, §2

subcutaneous H460 tumors = experiment: H460 subcutaneous tumor model in nude mice; format: in vivo, mouse; conditions: 50 mg/kg daily
Method: Disease was induced in nude mice by the implantation of subcutaneous H460 tumor cells into the left flank. Treatment was initiated when mean tumor volume reached approximately 100-150 mm^3. Mice were divided into treatment groups so that mean tumor volume in each group were approximately equal. Tumors were treated with PBS (vehicle), sorafenib (standard of care), non-coding RNA formulated in MC3 LNPs, or ZF9-MQ1 mRNA formulated in MC3 LNPs. PBS, Non-coding RNA (SEQ ID NO: 198) LNP and ZF9-MQ1 LNP were dosed at 3 mg/kg administered every five days. Sorafenib was dosed daily at 50 mg/kg. The length and width of tumors were measured twice weekly. Tumor volumes were calculated as (width^2×length)/2.

[1] = bi-cistronic ZF9-MQ1_ZF3-KRAB 0 μg/ml
[2] = bi-cistronic ZF9-MQ1_ZF3-KRAB 0.1 μg/ml
[3] = bi-cistronic ZF9-MQ1_ZF3-KRAB 0.6 μg/ml

With `CNC(=O)c1cc(Oc2ccc(NC(=O)Nc3ccc(Cl)c(C(F)(F)F)c3)cc2)ccn1` [sorafenib] the IC50 of sorafenib (SKHEP1 and Hep 3B cells; Hep 3B) was “did not change significantly”, the IC50 (SKHEP1 and Hep 3B cells; Hep3B, Hep 3B, in combination with 0.6 ug/ml bi-cistronic ZF9-MQ1_ZF3-KRAB) was 2.9 µM and the IC50 (SKHEP1 and Hep 3B cells; Hep3B, Hep 3B, sorafenib without bi-cistronic ZF9-MQ1_ZF3-KRAB) was 4.4 µM. The IC50 (SKHEP1 and Hep 3B cells; SK-HEP1, SKHEP1, in combination with 0.6 ug/ml bi-cistronic ZF9-MQ1_ZF3-KRAB) was 10.7 µM, the IC50 (SKHEP1 and Hep 3B cells; SK-HEP1, SKHEP1, sorafenib without bi-cistronic ZF9-MQ1_ZF3-KRAB) was 12.3 µM and the IC50 of sorafenib (SKHEP1 and Hep 3B cells; SKHEP1) was “did not change significantly”. It also gave an IC50 (Hep 3B cells; [1]) of 4.4 µM, an IC50 (Hep 3B cells; [2]) of 4.25 µM and an IC50 (Hep 3B cells; [3]) of 2.9 µM. For the same compound, the IC50 (SK-HEP-1 cells; [1]) was 12.3 µM, the IC50 (SK-HEP-1 cells; [2]) was 12.3 µM and the IC50 (SK-HEP-1 cells; [3]) was 10.7 µM. The “average tumor volume at the study termination” value (subcutaneous H460 tumors) was 752 mm^3.
